Literature values, collected in patent publication US9862652B2, “Microencapsulated nitrification inhibitor composition” (DOW AGROSCIENCES LLC, priority 2014, dated 2018).

Question: What does the source list for Clc1cccc(C(Cl)(Cl)Cl)n1 [nitrapyrin, 2-chloro-6-(trichloromethyl)pyridine]?
Answer: nitrapyrin dissolved by Hallcomid M-8-10 (ambient temperature): about 50 weight percent; nitrapyrin dissolved by Aromatic 100 (ambient temperature (24° C.)): about 51 weight percent; nitrapyrin dissolved by cyclohexanone (ambient temperature (24° C.)): about 60 wt %; nitrapyrin dissolved by Aromatic 150 (−10° C.): about 29 weight percent
